ChEMBL document CHEMBL4017527, “Are We There Yet? Applying Thermodynamic and Kinetic Profiling on Embryonic Ectoderm Development (EED) Hit-to-Lead Program” (J Med Chem, 2017)
pKd, pKi: −log10 of the molar value.

How the values were obtained:
Polycomb protein EED [1] = molecular target: T1, Polycomb protein EED (Homo sapiens, UniProt O75530); experiment: Binding affinity to GST tagged EED (unknown origin) after 1 hr by OG(488) probe based TR-FRET assay
Polycomb protein EED [2] = molecular target: T1, Polycomb protein EED; experiment: Binding affinity to biotin labelled human EED (78 to 441 residues) by SPR assay
Polycomb protein EED [3] = molecular target: T1, Polycomb protein EED; experiment: Binding affinity to His tagged human EED (77 to 441 residues) expressed in Escherichia coli BL21(DE3)-T1R by ITC method; details: read-out: Kd(app)

T1 sequence (O75530 whole entry, the tested form may be a part): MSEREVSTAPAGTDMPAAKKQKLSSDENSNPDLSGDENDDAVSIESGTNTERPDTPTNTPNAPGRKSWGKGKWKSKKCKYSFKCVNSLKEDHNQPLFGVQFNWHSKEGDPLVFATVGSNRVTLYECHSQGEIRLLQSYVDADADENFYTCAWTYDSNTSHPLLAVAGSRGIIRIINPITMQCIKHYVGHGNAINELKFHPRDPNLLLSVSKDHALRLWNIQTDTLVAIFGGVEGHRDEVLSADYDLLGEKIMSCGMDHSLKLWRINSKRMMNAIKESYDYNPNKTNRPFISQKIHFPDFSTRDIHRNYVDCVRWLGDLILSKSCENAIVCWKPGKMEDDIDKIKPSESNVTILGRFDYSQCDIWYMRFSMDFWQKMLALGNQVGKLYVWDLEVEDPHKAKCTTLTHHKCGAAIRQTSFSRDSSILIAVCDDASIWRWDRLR

pKi (Polycomb protein EED [1])	pKd (Polycomb protein EED [2])	pKd (Polycomb protein EED [3])	Compound
7.74	6.52		COc1ccc([C@H]2CN(Cc3c(F)cccc3Br)C[C@@H]2N(C)C)cc1OC
9.15	8.40	5.68	CC(=O)N1CCN(c2ccc([C@H]3CN(C4CCc5cccc(F)c54)C[C@@H]3N(C)C)cc2)CC1 (some centres not stated)
		8.00	CN(C)[C@H]1CN([C@H]2CCc3cccc(F)c32)C[C@@H]1c1cn(C)c2ccccc12
8.52	7.00	5.94	CC(=O)N1CCN(c2ccc([C@H]3CN([C@@H]4CCc5cccc(F)c54)C[C@@H]3N(C)C)cc2)CC1
8.00	6.85	7.52	Cc1cccc(F)c1CN1C[C@H](c2ccc(S(C)(=O)=O)cc2)[C@@H](N(C)C)C1
6.35	5.01		CN(C)[C@H]1CN(Cc2c(F)cccc2Br)C[C@@H]1c1ccccn1
7.04	5.59		CN(C)[C@H]1CN(Cc2c(F)cccc2Br)C[C@@H]1c1ccc(O)cc1
7.10	5.51	6.43	CN(C)[C@@H]1CN(Cc2c(F)cccc2Br)C[C@H]1c1cn(C)c2ccccc12
5.82	4.87		COc1ccccc1N1CCN(C(=O)c2ccccc2S(C)(=O)=O)CC1
8.52	7.37		COc1ccc([C@H]2CN(C3CCc4cccc(F)c43)C[C@@H]2N(C)C)cc1OC (some centres not stated)
9.52	9.00	8.00	CC(=O)N1CCN(c2ccc([C@H]3CN([C@H]4CCc5cccc(F)c54)C[C@@H]3N(C)C)cc2)CC1
6.96	5.32		CN(C)[C@H]1CN(Cc2c(F)cccc2Br)C[C@@H]1c1ccccc1
6.02	4.66	5.28	c1ccc2c(c1)CCN(c1ccncc1)C2
7.74	6.70	6.96	CC(=O)N1CCN(c2ccc([C@@H]3CN([C@@H]4CCc5cccc(F)c54)C[C@H]3N(C)C)cc2)CC1
		8.22	Cc1cccc(F)c1CN1C[C@H](c2cn(C)c3ccccc23)[C@@H](N(C)C)C1
7.38	6.54	5.66	CC(=O)N1CCN(c2ccc([C@@H]3CN([C@H]4CCc5cccc(F)c54)C[C@H]3N(C)C)cc2)CC1
6.17		5.60	CN(C)c1cc(N2CCc3ccccc3C2)ccn1
7.92	6.68		COc1ccc([C@H]2CN(Cc3c(C)cccc3F)C[C@@H]2N(C)C)cc1OC
8.52	7.70		CC(=O)N1CCN(c2ccc([C@H]3CN(Cc4c(C)cccc4F)C[C@@H]3N(C)C)cc2)CC1
8.10	7.21		CN(C)[C@H]1CN(Cc2c(F)cc(O)cc2Br)C[C@@H]1c1cn(C)c2ccccc12
6.54	5.85	6.03	Cc1cccc(F)c1CN1C[C@@H](N(C)C)[C@H](c2ccc(S(C)(=O)=O)cc2)C1
7.70 to 8.00	6.51 to 6.82	7.05	CN(C)[C@H]1CN(Cc2c(F)cccc2Br)C[C@@H]1c1cn(C)c2ccccc12
